Experimental findings from patent US20090012095A1, “HUMAN N-TYPE CALCIUM CHANNEL BLOCKERS” (Wyeth, priority 2002, published 2009) are described below.

Each structure is given as a SMILES string.

The target of assay [1] is T1, N-type calcium channel α1B+SFVG (Homo sapiens, UniProt Q00975, INS1237SFVG).
T1 construct: expressed in transfected cells; host or cells: Xenopus oocytes
Description: Transient expression and recording from Xenopus oocytes, calcium channel modulation. The class given is cell-based. The following applies: transient expression. The procedure:
Representative compounds of the formulae herein are screened for activity against […] in an assay essentially as described in J. Neurosci., Aug. 15, 2001, 21(16):5944-5951, W. Xu and D. Lipscombe, using transient expression and recording from Xenopus oocytes. The assay is performed using various calcium channels (e.g., N-type calcium channel α1B+SFVG) whereby the modulation of the calcium channel is measured for each compound.
The following IC50 data were obtained for compounds 1 and 2, following the above-referenced protocols (see Table 1).

In assay [2] the target is N-type calcium channel α1B+SFVG (Homo sapiens, UniProt Q00975). Description: Calcium channel modulation in HEK298 cells. It counts as cell-based.
Sequence of N-type calcium channel α1B+SFVG (Homo sapiens, UniProt Q00975) (Q00975 whole entry): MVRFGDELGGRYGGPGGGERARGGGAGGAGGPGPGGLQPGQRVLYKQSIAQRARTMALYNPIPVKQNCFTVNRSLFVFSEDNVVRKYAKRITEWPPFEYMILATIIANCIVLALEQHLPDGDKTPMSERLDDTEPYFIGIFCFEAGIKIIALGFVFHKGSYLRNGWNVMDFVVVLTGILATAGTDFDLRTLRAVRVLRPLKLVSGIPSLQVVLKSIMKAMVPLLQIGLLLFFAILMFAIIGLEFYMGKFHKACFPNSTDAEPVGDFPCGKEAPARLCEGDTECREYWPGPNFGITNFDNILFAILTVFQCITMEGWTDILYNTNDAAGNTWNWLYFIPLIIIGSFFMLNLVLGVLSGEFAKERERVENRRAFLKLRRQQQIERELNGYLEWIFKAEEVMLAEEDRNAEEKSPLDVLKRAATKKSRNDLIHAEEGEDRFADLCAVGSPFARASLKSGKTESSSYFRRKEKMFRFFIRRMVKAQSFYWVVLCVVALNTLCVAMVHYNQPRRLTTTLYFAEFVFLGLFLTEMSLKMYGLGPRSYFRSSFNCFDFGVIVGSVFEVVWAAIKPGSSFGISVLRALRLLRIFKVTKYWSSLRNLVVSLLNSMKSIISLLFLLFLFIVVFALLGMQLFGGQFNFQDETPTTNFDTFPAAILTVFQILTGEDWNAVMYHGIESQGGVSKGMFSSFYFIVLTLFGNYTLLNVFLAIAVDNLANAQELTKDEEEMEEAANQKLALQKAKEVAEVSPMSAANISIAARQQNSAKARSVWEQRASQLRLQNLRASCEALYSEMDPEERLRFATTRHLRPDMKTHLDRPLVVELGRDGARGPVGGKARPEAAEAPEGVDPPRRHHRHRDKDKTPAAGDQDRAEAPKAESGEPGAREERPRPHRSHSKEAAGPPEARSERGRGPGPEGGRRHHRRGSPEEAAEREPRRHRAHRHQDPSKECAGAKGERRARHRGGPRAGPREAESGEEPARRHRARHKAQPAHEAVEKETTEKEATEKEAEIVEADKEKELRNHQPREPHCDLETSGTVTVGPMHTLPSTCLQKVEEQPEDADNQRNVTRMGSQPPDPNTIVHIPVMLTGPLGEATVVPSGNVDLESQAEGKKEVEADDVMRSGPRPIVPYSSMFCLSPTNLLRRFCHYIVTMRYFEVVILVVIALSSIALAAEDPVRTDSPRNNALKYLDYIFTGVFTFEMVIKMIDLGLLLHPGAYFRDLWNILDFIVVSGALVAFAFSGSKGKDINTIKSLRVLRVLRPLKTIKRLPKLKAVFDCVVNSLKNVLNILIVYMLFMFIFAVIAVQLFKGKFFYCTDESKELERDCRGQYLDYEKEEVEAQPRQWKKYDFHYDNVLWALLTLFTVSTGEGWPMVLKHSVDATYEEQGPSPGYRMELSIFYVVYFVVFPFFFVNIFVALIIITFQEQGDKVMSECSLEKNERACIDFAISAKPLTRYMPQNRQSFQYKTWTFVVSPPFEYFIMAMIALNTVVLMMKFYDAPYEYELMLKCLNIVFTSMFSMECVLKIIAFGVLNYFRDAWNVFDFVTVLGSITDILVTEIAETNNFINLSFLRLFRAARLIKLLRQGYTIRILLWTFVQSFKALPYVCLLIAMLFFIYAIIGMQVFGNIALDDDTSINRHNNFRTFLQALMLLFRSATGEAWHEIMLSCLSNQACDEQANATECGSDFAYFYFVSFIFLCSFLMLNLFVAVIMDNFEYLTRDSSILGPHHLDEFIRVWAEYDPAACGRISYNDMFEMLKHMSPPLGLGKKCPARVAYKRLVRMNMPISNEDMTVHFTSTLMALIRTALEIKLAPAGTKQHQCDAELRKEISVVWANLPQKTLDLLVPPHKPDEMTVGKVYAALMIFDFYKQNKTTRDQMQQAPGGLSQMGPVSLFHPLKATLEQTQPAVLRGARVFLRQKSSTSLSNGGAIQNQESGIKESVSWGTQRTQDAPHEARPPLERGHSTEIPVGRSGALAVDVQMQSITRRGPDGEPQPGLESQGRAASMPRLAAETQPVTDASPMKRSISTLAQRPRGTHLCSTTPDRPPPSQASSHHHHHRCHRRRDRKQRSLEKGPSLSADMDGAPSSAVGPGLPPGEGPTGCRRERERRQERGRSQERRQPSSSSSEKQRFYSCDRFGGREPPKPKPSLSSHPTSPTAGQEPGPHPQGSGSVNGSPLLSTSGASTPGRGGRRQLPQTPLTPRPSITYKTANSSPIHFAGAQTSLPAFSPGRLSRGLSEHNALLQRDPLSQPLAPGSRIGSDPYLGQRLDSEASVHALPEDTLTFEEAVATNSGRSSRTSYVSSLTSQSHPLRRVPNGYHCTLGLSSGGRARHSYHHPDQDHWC

T1 sequence (Q00975 with tags, fused parts or gaps INS1237SFVG): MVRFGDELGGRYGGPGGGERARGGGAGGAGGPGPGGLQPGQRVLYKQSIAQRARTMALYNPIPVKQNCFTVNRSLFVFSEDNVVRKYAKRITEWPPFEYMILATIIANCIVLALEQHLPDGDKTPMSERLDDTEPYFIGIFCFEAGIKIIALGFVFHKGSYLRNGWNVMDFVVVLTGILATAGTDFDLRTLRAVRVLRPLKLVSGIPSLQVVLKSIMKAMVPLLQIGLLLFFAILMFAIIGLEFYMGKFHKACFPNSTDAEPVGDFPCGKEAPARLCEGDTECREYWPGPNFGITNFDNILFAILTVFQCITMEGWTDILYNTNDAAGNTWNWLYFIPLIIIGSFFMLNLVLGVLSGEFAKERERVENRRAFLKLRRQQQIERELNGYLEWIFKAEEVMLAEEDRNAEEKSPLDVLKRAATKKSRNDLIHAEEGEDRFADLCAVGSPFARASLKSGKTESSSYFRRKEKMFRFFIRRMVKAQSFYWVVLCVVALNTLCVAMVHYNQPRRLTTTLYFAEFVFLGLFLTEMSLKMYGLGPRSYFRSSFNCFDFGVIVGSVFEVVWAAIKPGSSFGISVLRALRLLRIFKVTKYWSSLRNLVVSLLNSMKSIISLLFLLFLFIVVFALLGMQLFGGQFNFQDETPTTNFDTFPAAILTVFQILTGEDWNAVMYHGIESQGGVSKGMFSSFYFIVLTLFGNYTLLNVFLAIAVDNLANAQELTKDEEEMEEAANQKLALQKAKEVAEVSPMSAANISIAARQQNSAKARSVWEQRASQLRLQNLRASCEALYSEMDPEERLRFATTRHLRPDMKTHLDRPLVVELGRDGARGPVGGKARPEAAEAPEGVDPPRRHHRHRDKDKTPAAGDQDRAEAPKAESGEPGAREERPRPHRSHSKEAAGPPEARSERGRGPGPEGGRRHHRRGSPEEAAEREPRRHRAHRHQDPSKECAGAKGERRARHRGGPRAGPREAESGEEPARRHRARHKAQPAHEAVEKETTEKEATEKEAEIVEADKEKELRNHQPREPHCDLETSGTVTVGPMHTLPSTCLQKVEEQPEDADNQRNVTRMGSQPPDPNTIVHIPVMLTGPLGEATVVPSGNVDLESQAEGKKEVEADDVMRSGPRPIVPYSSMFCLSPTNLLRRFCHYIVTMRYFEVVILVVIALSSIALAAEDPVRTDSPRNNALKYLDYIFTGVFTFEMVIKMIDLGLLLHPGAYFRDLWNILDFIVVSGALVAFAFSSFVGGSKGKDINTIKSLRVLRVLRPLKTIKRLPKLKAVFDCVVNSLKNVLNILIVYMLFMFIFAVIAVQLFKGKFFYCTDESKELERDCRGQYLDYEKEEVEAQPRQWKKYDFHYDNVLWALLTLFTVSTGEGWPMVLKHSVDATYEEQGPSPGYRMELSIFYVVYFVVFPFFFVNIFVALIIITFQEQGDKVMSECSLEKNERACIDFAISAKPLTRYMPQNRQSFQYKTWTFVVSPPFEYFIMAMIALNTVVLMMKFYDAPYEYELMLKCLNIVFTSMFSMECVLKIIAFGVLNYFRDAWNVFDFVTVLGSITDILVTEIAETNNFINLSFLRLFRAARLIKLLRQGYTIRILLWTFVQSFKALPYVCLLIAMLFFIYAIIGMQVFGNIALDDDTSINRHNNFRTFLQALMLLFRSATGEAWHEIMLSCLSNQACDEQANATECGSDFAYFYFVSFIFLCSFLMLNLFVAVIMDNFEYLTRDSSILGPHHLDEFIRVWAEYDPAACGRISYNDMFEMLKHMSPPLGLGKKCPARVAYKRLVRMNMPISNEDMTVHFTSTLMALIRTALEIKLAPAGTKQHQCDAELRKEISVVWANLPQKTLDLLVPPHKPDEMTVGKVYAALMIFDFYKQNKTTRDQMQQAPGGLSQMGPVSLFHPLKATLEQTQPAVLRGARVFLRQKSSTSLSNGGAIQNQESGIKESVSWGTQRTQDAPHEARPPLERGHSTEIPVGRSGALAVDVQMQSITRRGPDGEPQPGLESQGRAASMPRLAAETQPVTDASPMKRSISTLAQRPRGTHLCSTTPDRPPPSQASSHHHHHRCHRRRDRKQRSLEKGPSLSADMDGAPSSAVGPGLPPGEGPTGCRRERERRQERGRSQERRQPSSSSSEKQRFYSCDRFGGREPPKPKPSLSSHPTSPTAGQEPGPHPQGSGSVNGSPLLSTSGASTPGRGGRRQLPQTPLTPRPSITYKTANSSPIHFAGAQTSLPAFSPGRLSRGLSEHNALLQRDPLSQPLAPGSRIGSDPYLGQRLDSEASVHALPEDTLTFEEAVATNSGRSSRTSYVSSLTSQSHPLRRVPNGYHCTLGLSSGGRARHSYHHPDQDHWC

Turning to `COc1cc(CN2CCN(CCCCCC(c3ccc(F)cc3)c3ccc(F)cc3)CC2)cc(OC)c1OC` [Compound 1], the IC50 in assay [1] turned out to be 7.13 µM; in assay [2] it was 0.19 µM.

Regarding `O=C(CCCCC(c1ccccc1)c1ccccc1)N1CCC(NCc2ccccc2)CC1` [Compound 2], the half-maximal inhibitory concentration (IC50) in assay [1] came out at 4.16 µM.

In general, IC50 refers to the concentration that gives 50% inhibition.
